Test results as given in patent US20240060990A1, “SPATIAL SIGNALING NETWORKS FOR MULTIPLEXED DRUG RESPONSE MEASUREMENT AND MODELING” (Georgia Tech Research Corporation, priority 2022, published 2024).
“Also recorded” adds a separate entry of the source.

Legend:
PC9 cells [1] = assay: Subpopulation clustering of single cells (Leiden); format: cell-based, human; settings: 40 nM
p-AKT (S473) = settings: PC9 cells; cited from earlier work
[2] = system: pancytokeratin-positive cells; assay: Pan-cytokeratin staining of HCC827 xenograft tissue; format: in vivo, mouse; settings: 2-month treatment
Description: Tissues: HCC827-derived mouse xenografts were provided by Dr. Sun Shi-yong (Emory University). […] Mice were then euthanized, and the tumor was embedded in OCT for sectioning. The OCT tissues were fixed in acetone, rehydrated, permeabilized in 0.4% Triton X-100, blocked, and ready for multiplexed experiments.

p-EGFR (Tyr1086) = assay: RapMIF multiplexed immunofluorescence in PC9 cells, p-EGFR; format: cell-based, human; settings: 40 nM
Experimental: (§1) Following that, the cells were then fixed and permeabilized with 1.6% formaldehyde in 1×PBS for 10 minutes at RT and 0.5% Triton X-100 for 10 minutes at RT, respectively (FIG. 10A). The cells were then blocked using a cell staining medium (CSM) containing 5d. […] PC9 cells were stained with p-EGFR and β-tubulin overnight followed by 1-hour incubation of secondary antibodies at RT, and 15 mins DAPI staining. The cells were then imaged at 40× magnification, and the cell number was analyzed using ImageJ. […] The coverslip was mounted to an acrylic holder for multiple cycles of staining.

PC9 cells [3] = assay: Pearson correlation of single-cell mean marker intensity (RapMIF); format: cell-based, human
Experimental: Correlation analysis: Correlation between pairs of cells was performed based on the mean intensity level for a pair of markers across all the cells (FIGS. 5A-5F). The correlation between pairwise markers at the cell level was investigated to identify co-expression patterns. For the correlation analysis, the Pearson correlation of pairwise markers at the single-cell level was quantified by using the mean intensity distribution for pairs of markers across the cells (FIGS. 5E-5F, FIGS. 7C-7D). The per cell mean intensity was first extracted for all markers to obtain a vector of mean intensities per cell. The nuclei and cytosol region were then separated for each cell and extracted one vector of mean intensities in the cytosol and another vector of mean intensities in the nuclei per cell. To confirm the bleaching efficiency, the mean intensity correlations of the before and after bleach images was compared. The 3-way correlation was calculated with the adjusted-R^2 value of the linear regression model of one marker predicted by the two others. Specifically, the expression of the maker on the z-axis was predicted by the two markers on the x and y-axis using a 3D scatter plot.

sox2/oct4 = assay: RapMPI (multiplexed PLA) PPI counts in HCC827 cells, 9 PPI panel; format: cell-based, human; settings: 12 hours, 9 PPI dataset
Experimental: as §1, with “respectively.” for “respectively (FIG. 10A).”, “0.5% BSA, and 0.02% Sodium Azide in PBS.” for “5d.”, “HCC827” for “PC9”, “p-ERK” for “p-EGFR and β-tubulin”, “10” for “15”, “intensity levels were analyzed.” for “cell number was analyzed using ImageJ.”
(§2) RapMPI on cell cultures: For single color detection, each coverslip prepared with cells was stained with multiple PPIs with one PPI per cycle. The cells were fixed, permeabilized, and then ready for the following staining steps: 1) block the sample with Duolink blocking solution; 2) incubate it with one pair of proteins, conjugated to one PLUS and one MINUS oligonucleotide at 4° C. overnight.
(§3) For multicolor detection, after permeabilization, the cells underwent the following steps: 1) block the sample with Duolink blocking solution; 2) incubate it with two pair of proteins, conjugated to one pair of oligonucleotides at 4° C. overnight. […] After imaging, the samples were incubated with DNase at a 1:50 dilution rate for 4 hours at RT, followed by 3 times 30% formamide washes and 3 times 1×PBS washes.
(§4) PPI detection: PPI signals were detected using a custom algorithm leveraging a traditional image processing pipeline. More specifically, each PPI image was preprocessed as followed: images were first transformed using a top-hat filter of size 3 pixels to reduce the noise around PPI signals, then Laplacian of Gaussian images was used to detect bright local maxima as PPI signals. In 3D images, double detection of PPI was filtered out at the same position in consecutive Z stacks. After detecting all the PPI locations in 3D, PPI was observed within a 2.5-pixel radius (0.045 um) by creating a PPI neighborhood graph of radius threshold 2.5 pixels and getting all connected components in the graph. Finally, the mean position of the unique connected components in the graph was extracted as identified unique PPI signals in 3D.

NF-κB/p-p90RSK = assay: as above; format: cell-based, human; settings: 12 hours, 9 PPI dataset
Experimental: as §1, with “respectively.” for “respectively (FIG. 10A).”, “0.5% BSA, and 0.02% Sodium Azide in PBS.” for “5d.”, “HCC827” for “PC9”, “p-ERK” for “p-EGFR and β-tubulin”, “10” for “15”, “intensity levels were analyzed.” for “cell number was analyzed using ImageJ.”
as §2, §3, §4

Bim/Tom20 = assay: as above; format: cell-based, human; settings: 12 hours, 9 PPI dataset
Experimental: as §1, with “respectively.” for “respectively (FIG. 10A).”, “0.5% BSA, and 0.02% Sodium Azide in PBS.” for “5d.”, “HCC827” for “PC9”, “p-ERK” for “p-EGFR and β-tubulin”, “10” for “15”, “intensity levels were analyzed.” for “cell number was analyzed using ImageJ.”
as §2, §3, §4

cyclin D1/CDK4 = assay: as above; format: cell-based, human; settings: 12 hours, 9 PPI dataset
Experimental: as §1, with “respectively.” for “respectively (FIG. 10A).”, “0.5% BSA, and 0.02% Sodium Azide in PBS.” for “5d.”, “HCC827” for “PC9”, “p-ERK” for “p-EGFR and β-tubulin”, “10” for “15”, “intensity levels were analyzed.” for “cell number was analyzed using ImageJ.”
as §2, §3, §4

Mcl-1/Bak = settings: HCC827 cells, 100 nM, 12 h, 5 PPI dataset
Experimental: as §1, with “respectively.” for “respectively (FIG. 10A).”, “0.5% BSA, and 0.02% Sodium Azide in PBS.” for “5d.”, “HCC827” for “PC9”, “p-ERK” for “p-EGFR and β-tubulin”, “10” for “15”, “intensity levels were analyzed.” for “cell number was analyzed using ImageJ.”
as §2
PPI detection: PPI signals were detected using a custom algorithm leveraging a traditional image processing pipeline. More specifically, each PPI image was preprocessed as followed: images were first transformed using a top-hat filter of size 3 pixels to reduce the noise around PPI signals, then Laplacian of Gaussian images was used to detect bright local maxima as PPI signals. […]

p-EGFR (Y1173) = settings: PC9 cells; cited from earlier work
p-ERK(T202/Y204) = assay: p-ERK immunofluorescence in HCC827 cells; format: cell-based, human; settings: 100 nM
Experimental: as §1, with “respectively.” for “respectively (FIG. 10A).”, “0.5% BSA, and 0.02% Sodium Azide in PBS.” for “5d.”, “HCC827” for “PC9”, “p-ERK” for “p-EGFR and β-tubulin”, “10” for “15”, “intensity levels were analyzed.” for “cell number was analyzed using ImageJ.”

[4] = system: HCC827-derived mouse xenografts; assay: Tumor growth of HCC827-derived xenografts in mice; format: in vivo; settings: daily Osimertinib
p-EGFR (Y1068) = settings: PC9 cells; cited from earlier work

## C=CC(=O)Nc1cc(Nc2nccc(-c3cn(C)c4ccccc34)n2)c(OC)cc1N(C)CCN(C)C [Osimertinib]
PC9 cells [1]
  distribution of treated cells over 12 subpopulations: mainly distributed in subpopulation 3 and subpopulation 0
p-AKT (S473)
  p-AKT (S473) level: effectively inhibit the p-AKT (S473) level
[2]
  pancytokeratin-positive cells: more pancytokeratin-positive cells
p-EGFR (Tyr1086); 48 hours
  p-EGFR localization (cell membrane, nucleus): mainly localized in the cell membrane and the nuclear p-EGFR expression was relatively low
p-EGFR (Tyr1086); 48 hours vs control
  p-EGFR (Tyr1086) expression level in multiplexed heatmap: remained minimally enhanced; also recorded: remained minimally altered
  spatial continuity of p-EGFR distribution on the cell membrane: disrupted spatial continuity in the p-EGFR distributions on the cell membrane
PC9 cells [3]; 40 nM
  correlation of WNT1 with p-AKT: high correlation with p-AKT in the presence of the drug
PC9 cells [3]; 40 nM vs control
  correlation between p-EGFR and non-p-β-catenin: higher positive correlation between p-EGFR and non-p-β-catenin compared to the control
PC9 cells [3]; 40 nM, 48 hours
  correlation of p-EGFR with p-AKT (single-cell mean intensity): high correlation to p-AKT after drug treatment
PC9 cells [3]; control and 40 nM
  correlation of WNT1 with p-EGFR: low correlation with p-EGFR in both conditions
sox2/oct4
  sox2/oct4 PPI: downregulation
NF-κB/p-p90RSK
  NF-κB/p-p90RSK PPI: effectively inhibited
Bim/Tom20
  interactions between Tom20 and Bim: Reduced interactions
Cyclin D1/CDK4
  cyclin D1/CDK4 PPI: inhibitory effect
Mcl-1/Bak
  Mcl1/Bak interaction (PPI count), cytoplasm or whole cell: did not exhibit an obvious change
p-EGFR (Y1173)
  p-EGFR (Y1173) level: decreased the p-EGFR (Y1173) level
p-ERK(T202/Y204); 6-hour treatment
  p-ERK level: suppressed initially
p-ERK(T202/Y204); 12-hour treatment
  p-ERK level: increased
[4]; 5-day treatment
  tumor: almost disappeared
[4]; continued treatment
  tumor as treatment continued (acquired resistance): grew back and larger
[4]; first week
  xenograft growth: effectively inhibited for the first week
p-EGFR (Y1068)
  p-EGFR (Y1068) level: failed to alter the p-EGFR (Y1068)
